Holding throughout (assay type): biochemical
One test concerns the target T1, mouse MMP-3 (Mus musculus, UniProt P28862).
T1 construct: purchased R&D Systems 548-MP
In words: In vitro mouse MMP-3 inhibition test. The source says: (§1) The MMP-mediated amidolytic cleavage of a suitable peptide substrate leads to an increase in fluorescent light here too. The signal intensity of the fluorescent light is directly proportional to the enzyme activity. The active concentration of a test compound at which half the enzyme is inhibited (50% signal intensity of the fluorescent light) is reported as the IC50 value.
(§2) Recombinant mouse MMP-3 (from R&D Systems, 548-MP) is chemically activated in accordance with the manufacturer's instructions using APMA. 1 μl of the test compound to be analysed (as a solution in DMSO, suitable concentrations, for example, 1 nM to 30 μM) is pipetted into 24 μl of activated enzyme (final concentration, for example, 0.5 nM) in reaction buffer (50 mM Tris/HCl pH 7.5, 10 mM CaCl2, 150 mM NaCl, 0.05% Brij®-35) in a white 384-hole microtiter plate (MTP). The enzymatic reaction is started by adding the intramolecularly quenched Mca-Arg-Pro-Lys-Pro-Val-Glu-Nval-Trp-Arg-Lys(Dnp)-NH2 substrate (final concentration, for example, 5 μM; R&D Systems, ES-002), so as to result in a total test volume of 50 μl. The course of the MMP-3 reaction is measured by measuring the fluorescence intensity (excitation 320 nm, emission 410 nm) over a suitable period of time (for example over 120 min at a temperature of 32° C.).

Another test has as its target T2, mouse MMP-7 (Mus musculus, UniProt Q10738).
T2 construct: purchased R&D Systems 2967-MP
T2 sequence (Q10738 95-264): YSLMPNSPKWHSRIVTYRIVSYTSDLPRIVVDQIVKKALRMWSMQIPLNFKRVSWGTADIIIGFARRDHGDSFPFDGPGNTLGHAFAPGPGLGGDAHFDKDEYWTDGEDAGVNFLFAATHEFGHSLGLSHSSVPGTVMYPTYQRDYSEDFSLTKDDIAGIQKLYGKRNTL
In words: In vitro mouse MMP-7 inhibition test.
Description: as §1
as §2, with “MMP-7” for “MMP-3”, “2967-MP)” for “548-MP)”, “Mca-Lys-Pro-Leu-Gly-Leu-Dpa(Dnp)-Ala-Arg-NH2” for “Mca-Arg-Pro-Lys-Pro-Val-Glu-Nval-Trp-Arg-Lys(Dnp)-NH2”, “ES-010),” for “ES-002),”

Another test addresses T3, mouse MMP-12 (Mus musculus, UniProt P34960).
T3 construct: purchased R&D Systems 3467-MP
Put plainly: In vitro mouse MMP-12 inhibition test (standard or high-sensitivity).
Description: as §1
Recombinant mouse MMP-12 (from R&D Systems, 3467-MP) is autocatalytically activated in accordance with the manufacturer's instructions. 1 μl of the test compound to be analysed (as a solution in DMSO, suitable concentrations, for example, 1 nM to 30 μM) is pipetted into 24 μl of activated enzyme (final concentration, for example, 1 nM) in reaction buffer (50 mM Tris/HCl pH 7.5, 10 mM CaCl2, 150 mM NaCl, 0.05% Brij®-35) in a white 384-hole microtiter plate (MTP). The enzymatic reaction is started by adding the intramolecularly quenched Mca-Lys-Pro-Leu-Gly-Leu-Dpa(Dnp)-Ala-Arg-NH2 substrate (final concentration, for example, 5 μM; R&D Systems, ES-010), so as to result in a total test volume of 50 The course of the MMP-12 reaction is measured by measuring the fluorescence intensity (excitation 320 nm, emission 410 nm) over a suitable period of time (for example over 120 min at a temperature of 32° C.).
In this case, an enzyme concentration ten times lower is used (final concentration, for example, 0.1 nM) in order to achieve an elevated test sensitivity. The incubation period chosen for the test is correspondingly longer (for example 16 hours).

For another test, the target named is T4, mouse MMP-8 (Mus musculus, UniProt O70138).
T4 construct: purchased R&D Systems 2904-MP
T4 sequence (O70138 101-465): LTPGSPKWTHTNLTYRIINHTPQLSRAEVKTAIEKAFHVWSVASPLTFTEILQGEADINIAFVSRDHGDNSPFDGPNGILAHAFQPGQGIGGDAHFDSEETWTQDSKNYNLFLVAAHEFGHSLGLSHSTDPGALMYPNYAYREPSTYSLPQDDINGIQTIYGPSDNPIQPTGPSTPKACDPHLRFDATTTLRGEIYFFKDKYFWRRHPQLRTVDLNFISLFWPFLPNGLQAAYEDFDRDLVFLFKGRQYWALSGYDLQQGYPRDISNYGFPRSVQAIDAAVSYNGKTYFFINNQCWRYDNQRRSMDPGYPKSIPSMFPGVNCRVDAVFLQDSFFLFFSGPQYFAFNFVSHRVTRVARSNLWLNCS
In words: In vitro mouse MMP-8 inhibition test.
Description: as §1
as §2, with “MMP-8” for “MMP-3”, “2904-MP)” for “548-MP)”, “2” for “0.5”, “Mca-Lys-Pro-Leu-Gly-Leu-Dpa(Dnp)-Ala-Arg-NH2” for “Mca-Arg-Pro-Lys-Pro-Val-Glu-Nval-Trp-Arg-Lys(Dnp)-NH2”, “ES-010),” for “ES-002),”

A further test concerns the target T5, mouse MMP-9 (Mus musculus, UniProt P41245).
T5 construct: purchased R&D Systems 909-MP
In words: In vitro mouse MMP-9 inhibition test.
Description: as §1
as §2, with “MMP-9” for “MMP-3”, “909-MP)” for “548-MP)”, “0.1” for “0.5”, “Mca-Pro-Leu-Gly-Leu-Dpa(Dnp)-Ala-Arg-NH2” for “Mca-Arg-Pro-Lys-Pro-Val-Glu-Nval-Trp-Arg-Lys(Dnp)-NH2”, “ES-001),” for “ES-002),”, “50” for “50 μl.”

T3 sequence (P34960 110-473): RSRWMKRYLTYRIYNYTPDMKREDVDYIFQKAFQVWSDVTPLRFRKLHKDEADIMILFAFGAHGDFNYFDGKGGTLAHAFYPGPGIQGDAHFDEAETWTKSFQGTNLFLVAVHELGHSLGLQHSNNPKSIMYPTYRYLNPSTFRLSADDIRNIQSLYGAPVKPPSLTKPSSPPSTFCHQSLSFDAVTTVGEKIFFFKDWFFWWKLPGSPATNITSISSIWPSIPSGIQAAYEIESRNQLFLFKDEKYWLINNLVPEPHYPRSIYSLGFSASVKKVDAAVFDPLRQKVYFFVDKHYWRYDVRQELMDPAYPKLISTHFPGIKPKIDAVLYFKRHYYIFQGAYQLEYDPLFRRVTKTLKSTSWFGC
T1 sequence (P28862 100-477): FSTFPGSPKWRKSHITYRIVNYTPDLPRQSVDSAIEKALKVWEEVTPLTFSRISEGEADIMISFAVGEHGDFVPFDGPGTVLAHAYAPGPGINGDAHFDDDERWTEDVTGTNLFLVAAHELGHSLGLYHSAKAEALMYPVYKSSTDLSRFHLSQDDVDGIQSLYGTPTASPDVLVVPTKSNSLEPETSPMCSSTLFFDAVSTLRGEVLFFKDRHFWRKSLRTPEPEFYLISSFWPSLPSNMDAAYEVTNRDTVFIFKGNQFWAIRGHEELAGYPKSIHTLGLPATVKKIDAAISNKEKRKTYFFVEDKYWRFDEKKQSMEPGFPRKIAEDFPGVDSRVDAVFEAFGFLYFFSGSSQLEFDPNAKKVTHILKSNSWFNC
T5 sequence (P41245 108-730): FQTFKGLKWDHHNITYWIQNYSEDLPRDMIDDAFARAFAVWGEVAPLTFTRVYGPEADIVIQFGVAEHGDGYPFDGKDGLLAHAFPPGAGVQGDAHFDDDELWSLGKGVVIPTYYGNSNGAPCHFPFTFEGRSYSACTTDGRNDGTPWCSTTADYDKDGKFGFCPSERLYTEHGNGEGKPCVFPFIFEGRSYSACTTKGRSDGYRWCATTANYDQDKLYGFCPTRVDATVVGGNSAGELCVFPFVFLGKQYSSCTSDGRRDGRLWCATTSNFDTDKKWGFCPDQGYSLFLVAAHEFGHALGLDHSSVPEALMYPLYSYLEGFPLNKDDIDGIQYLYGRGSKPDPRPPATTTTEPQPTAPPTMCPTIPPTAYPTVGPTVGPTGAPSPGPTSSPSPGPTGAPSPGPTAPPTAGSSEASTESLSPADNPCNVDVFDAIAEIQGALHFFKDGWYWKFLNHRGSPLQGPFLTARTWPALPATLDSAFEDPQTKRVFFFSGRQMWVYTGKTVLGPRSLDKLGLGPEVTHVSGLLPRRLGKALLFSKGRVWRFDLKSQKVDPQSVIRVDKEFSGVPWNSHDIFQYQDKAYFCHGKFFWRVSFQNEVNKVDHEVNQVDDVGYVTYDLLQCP

As a reminder, the IC50 is the concentration needed to halve the response being measured. A lower IC50 goes with greater potency in that assay. In the case of `COC(=O)Nc1cccc(COc2ccc(C(=O)[C@@H]3CC[C@H](Cn4nnc5ccc(C(F)(F)F)cc5c4=O)[C@H]3C(=O)O)cc2)c1` (stereo in doubt) [Example 31, (+)-(1RS,2RS,5SR)-2-[4-({3-[(Methoxycarbonyl)amino]benzyl}oxy)benzoyl]-5-{[4-oxo-6-(trifluoromethyl)-1,2,3-benzotriazin-3(4H)-yl]methyl}cyclopentanecarboxylic acid], the IC50 against mouse MMP-3 turned out to be 3900 nM; on mouse MMP-7, 44 nM; against mouse MMP-12, 6.4 nM; against mouse MMP-8, 89 nM; against mouse MMP-9 it was 4300 nM.
In the case of `Cc1ccc2nnn(C[C@@H]3CC[C@H](C(=O)c4ccc(OCc5cccc(OC(F)(F)F)c5)cc4)[C@H]3C(=O)O)c(=O)c2c1` (racemic) [Example 109, (+/−)-(1RS,2SR,5RS)-2-[(6-Methyl-4-oxo-1,2,3-benzotriazin-3(4H)-yl)methyl]-5-(4-{[3-(trifluoromethoxy)benzyl]oxy}benzoyl)cyclopentanecarboxylic acid], the half-maximal inhibitory concentration (IC50) is 1100 nM against mouse MMP-3; 250 nM against mouse MMP-7; 3 nM against mouse MMP-12; 450 nM at mouse MMP-8; 910 nM on mouse MMP-9.
The corresponding values for `Cc1ccc2nnn(C[C@@H]3CC[C@H](C(=O)c4ccc(OCc5ccccc5)cc4)[C@H]3C(=O)O)c(=O)c2c1` (racemic) [Example 91, (+/−)-(1RS,2RS,5SR)-2-[4-(Benzyloxy)benzoyl]-5-[(6-methyl-4-oxo-1,2,3-benzotriazin-3(4H)-yl)methyl]cyclopentanecarboxylic acid] are 400 nM, 22 nM, 0.86 nM, 26 nM and 72 nM.
The corresponding values for `O=C(O)[C@H]1[C@H](Cn2nnc3ccc(C(F)(F)F)cc3c2=O)CC[C@@H]1C(=O)c1ccc(OCC2CCCCC2)cc1` (racemic) [Example 40, (+/−)-(1RS,2RS,5SR)-2-[4-(Cyclohexylmethoxy)benzoyl]-5-{[4-oxo-6-(trifluoromethyl)-1,2,3-benzotriazin-3(4H)-yl]methyl}cyclopentanecarboxylic acid] are 180 nM, 220 nM, 1.9 nM, 25 nM and 640 nM.
The corresponding values for `O=C(O)[C@@H]1[C@@H](Cn2nnc3ccc(C(F)(F)F)cc3c2=O)CC[C@H]1C(=O)c1ccc(OCC2CCCCC2)cc1` (single isomer, unassigned) [Example 41, (+)-(1RS,2RS,5SR)-2-[4-(Cyclohexylmethoxy)benzoyl]-5-{[4-oxo-6-(trifluoromethyl)-1,2,3-benzotriazin-3(4H)-yl]methyl}cyclopentanecarboxylic acid] are 790 nM, 27 nM, 0.71 nM, 16 nM and 220 nM.
As to `Cc1ccc2nnn(C[C@H]3CC[C@@H](C(=O)c4ccc(OCc5cccc(C(F)(F)F)c5)cc4)[C@@H]3C(=O)O)c(=O)c2c1` (single isomer, unassigned) [Example 101, (+)-(1RS,2SR,5RS)-2-[(6-Methyl-4-oxo-1,2,3-benzotriazin-3(4H)-yl)methyl]-5-(4-{[3-(trifluoromethyl)benzyl]oxy}benzoyl)cyclopentanecarboxylic acid], the IC50 was 1300 nM against mouse MMP-3; 76 nM on mouse MMP-7; 1.1 nM against mouse MMP-12; 120 nM against mouse MMP-8; 400 nM on mouse MMP-9.
For `Cc1ccc2nnn(C[C@H]3CC[C@@H](C(=O)c4ccc(OCc5cccc(OC(F)(F)F)c5)cc4)[C@@H]3C(=O)O)c(=O)c2c1` (single isomer, unassigned) [Example 110, (+)-(1RS,2SR,5RS)-2-[(6-Methyl-4-oxo-1,2,3-benzotriazin-3(4H)-yl)methyl]-5-(4-{[3-(trifluoromethoxy)benzyl]oxy}benzoyl)cyclopentanecarboxylic acid] the same measures were 2400 nM, 220 nM, 0.72 nM, 420 nM and 1100 nM.
The corresponding values for `O=C(O)[C@H]1[C@H](Cn2nnc3ccc(C(F)(F)F)cc3c2=O)CC[C@@H]1C(=O)c1ccc(OCCCc2ccccc2)cc1` (racemic) [Example 39, (+/−)-(1RS,2SR,5RS)-2-{[4-Oxo-6-(trifluoromethyl)-1,2,3-benzotriazin-3(4H)-yl]methyl}-5-[4-(3-phenylpropoxy)benzoyl]cyclopentanecarboxylic acid] are 9500 nM, 230 nM, 11 nM, 640 nM and above 40000 nM.
For `O=C(O)[C@H]1[C@H](Cn2nnc3ccccc3c2=O)CC[C@@H]1C(=O)c1ccc(OCc2ccc(F)cc2)cc1` (racemic) [Example 1, (+/−)-(1RS,2RS,5SR)-2-{4-[(4-Fluorobenzyl)oxy]benzoyl}-5-[(4-oxo-1,2,3-benzotriazin-3(4H)-yl)methyl]cyclopentanecarboxylic acid] the same measures were 160 nM, 46 nM, 0.61 nM, 18 nM and 31 nM.

Source of the values: US20170022171A1, “2,5-DISUBSTITUTED CYCLOPENTANECARBOXYLIC ACIDS AND THEIR USE” (Bayer Pharma Aktiengesellschaft, priority 2014, published 2017).
